According to PubChem BioAssay (NCI):
Several values for one entry are separate records, joined by “and”; a condition that tells them apart may be missing. Equal entries are not always repeated.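 Exposure lasted 48 hours, with cells grown in 96-well plates and compounds tested at five concentrations. GI50 = concentration required for 50% inhibition of growth. TGI is the concentration that stops growth completely.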

Key:
Assay in all cases: NCI-60 cell line screen, 48 h
A549 NSCLC = tested on: A549 NSCLC
UO-31 renal = tested on: UO-31 renal
SF-539 CNS = tested on: SF-539 CNS
786-0 renal = tested on: 786-0 renal
SNB-19 CNS = tested on: SNB-19 CNS
UACC-62 melanoma = tested on: UACC-62 melanoma
SK-OV-3 ovarian = tested on: SK-OV-3 ovarian
OVCAR-3 ovarian = tested on: OVCAR-3 ovarian
HOP-92 NSCLC = tested on: HOP-92 NSCLC
SN12C renal = tested on: SN12C renal

SMILES	GI50 (A549 NSCLC)	TGI (A549 NSCLC)	GI50 (UO-31 renal)	TGI (UO-31 renal)	GI50 (SF-539 CNS)	TGI (SF-539 CNS)	GI50 (786-0 renal)	TGI (786-0 renal)	GI50 (SNB-19 CNS)	TGI (SNB-19 CNS) [µM]	GI50 (UACC-62 melanoma)	TGI (UACC-62 melanoma)	GI50 (SK-OV-3 ovarian)	TGI (SK-OV-3 ovarian)	GI50 (OVCAR-3 ovarian)	TGI (OVCAR-3 ovarian)	GI50 (HOP-92 NSCLC)	TGI (HOP-92 NSCLC)	GI50 (SN12C renal)	TGI (SN12C renal) [µM]
Cc1cc(N2CCCC2)nc(N(CCCNc2ccnc3cc(Cl)ccc23)Cc2ccc3c(c2)OCO3)n1	2.74 µM	12.5 µM	0.677 µM	3.71 µM	1.23 µM	2.6 µM	1.11 µM	2.8 µM	2.45 µM	12.7	1.78 µM	3.38 µM	4.98 µM	20.3 µM	1.06 µM	2.87 µM	0.0237 µM	2.96 µM	1.76 µM	11.3
Nc1nc(Nc2cccc(F)c2)nc2ccccc12	36.9 µM	> 100 µM	19 µM	61.2 µM	16.8 µM	34.2 µM	17.4 µM	33.6 µM	35.3 µM	> 100	17.8 µM	38.3 µM	35.3 µM	> 100 µM	21.1 µM	49.6 µM	13.8 µM	38.5 µM	32.8 µM	> 100
O=C(O)c1c[nH]cc1C(=O)O		> 100 µM		> 100 µM		> 100 µM		> 100 µM		> 100		> 100 µM		> 100 µM		> 100 µM		> 100 µM		> 100
CC(C)[C@@H](COC(C)(C)C)N=CN1CCc2c([nH]c3ccccc23)C1		> 100 µM		> 100 µM		> 100 µM		> 100 µM		> 100		> 100 µM		> 100 µM		> 100 µM		89.6 µM		> 100
CC(=O)OC1C2(CC3N4C(=O)C5(CO)SSC4(CC31O)C(=O)N5C)OC(C)C(C)(C)C2=O (stereo unspecified)	0.0592 µM	0.231 µM	0.0952 µM	1.05 µM	0.139 µM	0.215 µM	0.234 µM	0.528 µM	0.0184 µM	0.0666	0.0103 µM	0.0322 µM	0.0745 µM	0.454 µM	1.32 µM	3.01 µM	0.0763 µM	0.214 µM	< 0.0114 µM	0.05
CC(C)OC(=O)c1ccc2[nH]c(O)c(C(=Nc3ccc(N(C)C(=O)CN4CCN(C)CC4)cc3)c3ccccc3)c2c1	0.389 µM	2.18 µM	0.278 µM	1.31 µM	0.318 µM	1.16 µM	0.327 µM	1.97 µM	0.921 µM	2.33	1.32 µM	3.01 µM	0.308 µM	1.34 µM	0.55 µM	2.02 µM	0.243 µM	1.71 µM	0.0977 µM	1.6
Cc1ccc2c(c1)ncn2-c1ncnc2c1CC(C)c1ccccc1N2C (stereo unspecified)	0.248 µM	17.5 µM	0.317 µM	7.11 µM	0.0896 µM	11.6 µM	0.487 µM	14.7 µM	0.17 µM	20.7			0.139 µM	17.7 µM	0.0389 µM	0.409 µM	3.77 µM	18.7 µM	0.444 µM	15.6
CCCCCc1c(C)[nH]c(/C=C2\N=C(c3ccc[nH]3)C=C2Oc2ccc(Cl)cc2)c1C	0.0753 µM and 0.0264 µM	0.382 µM and 0.229 µM	0.142 µM and 0.0599 µM	0.32 µM and 0.222 µM	0.125 µM and 0.0406 µM	0.992 µM and 0.474 µM	0.0763 µM and 0.0461 µM	0.326 µM and 0.512 µM	0.268 µM and 0.173 µM	4.33	0.0418 µM and 0.0299 µM	0.163 µM and 0.0884 µM	0.308 µM and 0.277 µM	17.6 µM	0.107 µM and 0.0342 µM	0.516 µM and 0.45 µM	0.0417 µM and 0.0176 µM	0.314 µM and 0.361 µM	0.112 µM and 0.0549 µM	1.92
CCCCC[C@H]1C/C=C2/C(=O)C(Cl)=C[C@@H]2C/C=C\CCCC(=O)O[C@@H](CCCCC)C/C=C2/C(=O)C(Cl)=C[C@@H]2C/C=C\CCCC(=O)O1	0.426 µM	1.15 µM	0.269 µM	0.508 µM	0.518 µM	1.97 µM	0.28 µM	0.622 µM	0.549 µM	2.24	0.297 µM	0.62 µM	0.966 µM	4.18 µM	0.268 µM	0.555 µM	0.314 µM	0.687 µM	0.482 µM	2.72
S=c1ssc(Sc2ccccn2)c1Cl	21 µM	42.7 µM	6.51 µM	> 100 µM	16 µM	32.1 µM	4.09 µM	14.4 µM	17 µM	41	15.3 µM	28.6 µM	23.7 µM	47.7 µM	13.2 µM	25.9 µM	12.6 µM	26.8 µM	13.2 µM	25.9
Cn1cc(-c2ccc3c(c2)CCN3C(=O)Cc2cccc(C(F)(F)F)c2)c2c(N)ncnc21	7.61 µM	25.5 µM	0.673 µM	14.3 µM	1.95 µM	11.8 µM	2.26 µM	17.7 µM	7.06 µM	22.9	2.72 µM	16.9 µM	1.26 µM	8.14 µM	7.1 µM	21.9 µM	1.7 µM	9.2 µM	2.48 µM	19.6
CCc1c2c(nc3cccc(N)c13)-c1cc3c(c(=O)n1C2)COC(=O)[C@]3(O)CC	0.00817 µM	0.504 µM	0.0516 µM	0.397 µM	< 0.001 µM	0.00491 µM	< 0.001 µM	1.62 µM	0.00176 µM	0.0512	< 0.001 µM		0.00719 µM	4.13 µM and 13 µM	0.237 µM		0.00331 µM		< 0.001 µM	38.7
CCc1c[nH]c2ncnc(N3CC[C@@](N)(CNC(=O)c4ccc(F)cc4F)C3)c12	24.5 µM	> 86.9 µM	33.7 µM	> 100 µM	20.4 µM	> 100 µM	25.9 µM	> 85.5 µM	44.8 µM	> 100	33 µM	> 100 µM	32 µM	> 100 µM	69.1 µM	> 100 µM	20.9 µM	> 100 µM	32.1 µM	> 100
Clc1ccc(CN2COc3c(cc(Cl)c4cccnc34)C2)cc1		6.12 µM		5.51 µM		4.92 µM		9.41 µM		16		4.11 µM		13.3 µM		6.84 µM		12.9 µM		15.6
CCO[C@@H]1C2C=CC(C2)[C@H]1[N+](=O)[O-] (stereo partly specified)		> 100 µM		> 100 µM		> 100 µM		> 100 µM		> 100		> 100 µM		> 100 µM		> 100 µM		> 100 µM		> 100
O=C1CCC2(c3ccccc3)Nc3cc(Cl)ccc3N12 (stereo unspecified)		> 100 µM		63.3 µM		> 100 µM		> 100 µM				56.4 µM		85.1 µM		62.8 µM		40.7 µM		> 100
COc1cc(/C=C(/c2ccccc2)[N+](=O)[O-])c(OC)c2c1OCO2	2.1 µM	5.03 µM	1.28 µM	2.54 µM	1.7 µM	3.09 µM	1.62 µM	3.05 µM	1.58 µM	2.95	1.44 µM	2.98 µM	2.89 µM	8.29 µM	1.32 µM	2.63 µM	1.48 µM	3.2 µM	1.56 µM	3.79
O=c1oc2ccc(Cl)cc2c(=O)n1-c1ccc(I)cc1F	1.01 µM	> 100 µM	0.126 µM	1.2 µM	0.231 µM	2.69 µM	1.36 µM	4.13 µM	0.206 µM	> 100	0.104 µM	0.788 µM	0.451 µM	4.31 µM	0.177 µM	13.3 µM	0.0571 µM	0.202 µM	0.204 µM	3.07
O=c1cccccc1NCCCCCCCCCNc1cccccc1=O		> 100 µM		41.6 µM		21.3 µM		88.9 µM		88.5		28.7 µM		99.8 µM		37.5 µM		41.6 µM		62.2
Cn1cc(-c2ccc(CNc3cc(-c4cnc5cc(OCCCN6CCCC6)ccn45)ncn3)cc2)cn1	1.73 µM	3.49 µM	1.41 µM	2.82 µM	1.17 µM	2.46 µM	1.49 µM	2.91 µM	2.5 µM	8.43	13.2 µM	29.2 µM	23 µM	43.3 µM	1.9 µM	4.13 µM	3.89 µM	22.2 µM	1.82 µM	3.61
CN(C)C(=O)C1CCC(=C2C(=O)OC(C)(C)OC2=O)N1C (stereo unspecified)		> 100 µM		> 100 µM		> 100 µM		> 100 µM		> 100		> 100 µM		> 100 µM		> 100 µM		> 100 µM		> 100
Cc1cn2c(/C=N/N/C(N)=N\N)c(-c3ccc(Cl)c([N+](=O)[O-])c3)nc2s1			9.45 µM	22.5 µM	0.993 µM	1.83 µM	0.859 µM	1.73 µM	2.05 µM	18.6	0.883 µM	1.67 µM	1.29 µM	2.78 µM	0.865 µM	1.75 µM	2.55 µM	13.3 µM	1.27 µM	4.09
C[C@H](CS(C)(=O)=O)Nc1ncc2cc(Oc3ccc(F)cc3F)c(=O)n(C)c2n1	> 25 µM	> 25 µM	> 25 µM	> 25 µM	> 25 µM	> 25 µM	> 25 µM	> 25 µM	> 25 µM	> 25	> 25 µM	> 25 µM	> 25 µM	> 25 µM	> 25 µM	> 25 µM	> 10.4 µM	> 25 µM	> 25 µM	> 25
CCOC(=O)N1C2C=C(C)C(C3C(C)C(=O)N31)N(C(=O)c1ccccc1)O2 (stereo unspecified)		> 100 µM		> 100 µM		> 100 µM		> 100 µM		> 100		> 100 µM		> 100 µM		> 100 µM		> 100 µM		> 100
Oc1cc(Cl)ccc1Oc1ccc(Cl)cc1Cl	2.6 µM	8.12 µM	2.76 µM	12 µM	2.58 µM	7.74 µM	2.47 µM	6.61 µM	3.66 µM	13.7	2.16 µM	5 µM	2.97 µM	7.86 µM	5.21 µM	17.2 µM	2.11 µM	5.69 µM	3.12 µM	11.4
CN(C)c1ccc(N=Nc2c([O-])ccc3ccccc23)cc1.[C-]#[O+].[C-]#[O+].[Ir]	> 46.6 µM	> 69.3 µM	26.7 µM	> 53.2 µM	16.3 µM	25.6 µM	26.4 µM	> 56.3 µM	> 100 µM	> 100	21.5 µM	55.6 µM	> 100 µM	> 100 µM	20.7 µM	45.6 µM	2.72 µM	8.64 µM	17 µM	34.5
O=c1[nH]cc(OCC(F)(F)F)c(=O)[nH]1		> 100 µM		> 100 µM		> 100 µM		> 100 µM		> 100		> 100 µM		> 100 µM		> 100 µM		> 100 µM		> 100
Fc1ccc(Nc2nccc(-c3c(-c4ccc(C(F)(F)F)cc4)nn4ncccc34)n2)cc1F	> 25 µM	> 25 µM	> 25 µM	> 25 µM	> 25 µM	> 25 µM	> 25 µM	> 25 µM	> 25 µM	> 25	> 25 µM	> 25 µM	> 25 µM	> 25 µM	> 25 µM	> 25 µM	> 25 µM	> 25 µM	> 25 µM	> 25
O=C1CC2C(=O)N(Cc3ccccc3)C1C(S(=O)(=O)c1ccccc1)C2S(=O)(=O)c1ccccc1 (stereo unspecified)		33.2 µM		22.6 µM		4.18 µM		9.68 µM				5.22 µM		31.5 µM		3.65 µM		4.24 µM		3.18
